Assay results reported in patent US10058549B2, “Imidazo[1,2-α]pyridine derivatives as modulators of the 5-HT2A serotonin receptor useful for the treatment of disorders related thereto” (Arena Pharmaceuticals, Inc., priority 2007, dated 2018).

What was measured:
[1] = system: diabetic nephropathy patients; conditions: 24 months of treatment; cited from earlier work
[2] = system: inflammatory pain in rats; conditions: intrathecal or intraperitoneal administration; cited from earlier work
humans = conditions: lumbar disc herniation; cited from earlier work
diabetic rats = conditions: 19.8% deficit in diabetic rats; cited from earlier work
[3] = system: thermal induced pain in rats; conditions: intraperitoneal administration; cited from earlier work
[4] = system: DOI-induced hypolocomotion in rats; assay: Attenuation of DOI-induced hypolocomotion in rats; format: in vivo, rat; conditions: compound 1-10 mg/kg p.o., DOI 1 mg/kg s.c.
Description: In this example, compounds of the invention were tested for inverse agonist activity by determining whether these compounds could attenuate DOI-induced hypolocomotion in rats in a novel environment. DOI is a potent 5-HT2A/2C receptor agonist that crosses the blood-brain barrier. The standard protocol used is described briefly below.
Male Sprague-Dawley rats weighing between 200-350 g were used for all tests. Rats were housed three to four per cage.
(R)-DOI HCl (C11H16INO2.HCl) was obtained from Sigma-Aldrich and was dissolved in 0.9% saline. Compounds of the invention were synthesized at Arena Pharmaceuticals Inc., San Diego, Calif. and were dissolved in 100% PEG400. DOI was injected s.c. in a volume of 1 mL/kg, while compounds of the invention were administered p.o. in a volume of 1 mL/kg.
The “Motor Monitor” (Hamilton-Kinder, Poway, Calif.) was used for all activity measurement. This apparatus recorded rears using infrared photobeams. […]
In determining the effects of compounds of the invention on DOI-induced hypoactivity, animals were first injected with vehicle or the compound of the invention (1-10 mg/kg) in their home cages. […] Ten minutes after DOI administration, animals were placed into the activity apparatus and rearing activity was measured for 10 min.
Results (total rears over 10 min) were analyzed by t-test. […]

JC virus = conditions: human glial cells; cited from earlier work
normal volunteers = assay: Afternoon nap model of insomnia in normal volunteers; format: in vivo, human
healthy adults = assay: Phase 1 trials, waking EEG; format: in vivo, human
heatstroke = conditions: during heatstroke; cited from earlier work

COc1cccc(CCc2ccccc2OCC(CN(C)C)OC(=O)CCC(=O)O)c1 (stereo not drawn) [sarpogrelate]
urinary albumin excretion level [1]: significantly reduced | analgesic effect on inflammatory pain [2]: significant analgesic effect | treatment of lower back pain, leg pain and numbness associated with sciatica (humans): effective treatment | correction of sciatic motor conduction deficit (diabetic rats): 82.6-99.7% | analgesic effect on thermal induced pain [3]: significant analgesic effect

O=C(c1cccn2ccnc12)N1CCN(CCc2ccc(Cl)cc2Cl)CC1 [Compound 19, (4-(2,4-Dichlorophenethyl)piperazin-1-yl)(imidazo[1,2-a]pyridin-8-yl)methanone]
attenuation of DOI-induced hypolocomotion (total rears over 10 min) [4]: attenuated DOI-induced hypolocomotion

Cc1nc2sccn2c(=O)c1CCN1CCC(=C(c2ccc(F)cc2)c2ccc(F)cc2)CC1 [ritanserin]
JC virus infection (JC virus): inhibited | correction of sciatic motor conduction deficit (diabetic rats): 82.6-99.7%

COc1ccc(NC(=O)Nc2ccc(F)cc2F)cc1-c1c(Br)cnn1C [APD125]
microarousals, number of sleep stage shifts and number of awakenings after sleep onset (normal volunteers; human, in vivo): decreased | sleep onset latency (normal volunteers; human, in vivo): not decreased | slow wave sleep and associated parameters (normal volunteers; primarily during the early part of sleep): increased slow wave sleep and associated parameters in a dose-dependent manner | effect on waking EEG (healthy adults): vigilance-lowering effects | dose of maximal vigilance-lowering effects (healthy adults; waking EEG): 40 to 80 mg | time of peak effects after dosing (healthy adults; waking EEG): 2 to 4 h

O=C(c1ccc(F)cc1)C1CCN(CCn2c(=O)[nH]c3ccccc3c2=O)CC1 [ketanserin]
JC virus infection (JC virus): inhibited | protection against circulatory shocks, intracranial hypertension and cerebral ischemia (heatstroke): protect against circulatory shocks, intracranial hypertension and cerebral ischemia

O=CN1CCC(C(=O)NCCN2CCC(=C3c4ccccc4C=Cc4ccccc43)CC2)CC1 [AT-1015]
correction of sciatic motor conduction deficit (diabetic rats): 82.6-99.7%

O=C(c1cccn2ccnc12)N1CCN(CCc2ccccc2F)CC1 [Compound 18, (4-(2-Fluorophenethyl)piperazin-1-yl)(imidazo[1,2-a]pyridin-8-yl)methanone]
attenuation of DOI-induced hypolocomotion (total rears over 10 min) [4]: attenuated DOI-induced hypolocomotion
